{"source": "patent US9441006B2", "about": "“Polymorph of 2-[4-[(methylamino)carbonyl]-1H-pyrazol-1-yl]adenosine” (Farmak, a.s., priority 2013, dated 2016)", "key": {"[1]": {"conditions": "background art, WO 2008/143667, cited from earlier work"}, "[2]": {"experiment": "Dissolution rate in water (Lasentec FBRM particle size distribution measurement)", "assay_type": "physicochemical", "conditions": "165 mg in 500 ml water, identical conditions, FIG. 4", "experimental": "Equal amounts of both polymorphs (165 mg) were dissolved in the same amounts of water (500 ml) under identical conditions (dissolving regime, stirrer revolutions, etc.). It is obvious that the dissolution rate of polymorph E is approximately twofold. Polymorph E is completely dissolved within about 45 minutes, whereas the same amount of polymorph A is, under same conditions, dissolved after about 90 minutes."}, "[3]": {"experiment": "Solubility of polymorph E in water in comparison with polymorph A", "assay_type": "physicochemical", "conditions": "at different temperatures"}, "[4]": {"conditions": "all known polymorphic forms; cited from earlier work"}}, "note": "Like-named read-outs stand apart in the source and are kept apart here.", "data": [{"smiles": "CNC(=O)c1cnn(-c2nc(N)c3ncn([C@@H]4O[C@H](CO)[C@@H](O)[C@H]4O)c3n2)c1", "note": "[Polymorph C, 2-[4-[(methylamino)carbonyl]-1H-pyrazol-1-yl]adenosine]", "values": [{"measurement": "stability of the polymorph", "setting": "[1]", "value": "converted to unstable forms by heating"}]}, {"smiles": "CNC(=O)c1cnn(-c2nc(N)c3ncn([C@@H]4O[C@H](CO)[C@@H](O)[C@H]4O)c3n2)c1", "note": "[amorphous form, 2-[4-[(methylamino)carbonyl]-1H-pyrazol-1-yl]adenosine]", "values": [{"measurement": "stability of the polymorph", "setting": "[1]", "value": "unstable"}]}, {"smiles": "CNC(=O)c1cnn(-c2nc(N)c3ncn([C@@H]4O[C@H](CO)[C@@H](O)[C@H]4O)c3n2)c1", "note": "[polymorph A, 2-[4-[(methylamino)carbonyl]-1H-pyrazol-1-yl]adenosine monohydrate]", "values": [{"measurement": "stability of the polymorph", "setting": "[1]; monohydrate", "value": "relatively stable"}, {"measurement": "time to complete dissolution in water", "setting": "[2]; monohydrate", "value": "about 90 minutes"}]}, {"smiles": "CNC(=O)c1cnn(-c2nc(N)c3ncn([C@@H]4O[C@H](CO)[C@@H](O)[C@H]4O)c3n2)c1", "note": "[polymorph E, 2-[4-[(methylamino)carbonyl]-1H-pyrazol-1-yl]adenosine]", "values": [{"measurement": "solubility in water", "setting": "[3]", "value": "practically the same"}, {"measurement": "dissolution rate in water relative to polymorph A", "setting": "[2]", "value": "approximately twofold"}, {"measurement": "time to complete dissolution in water", "setting": "[2]", "value": "about 45 minutes"}]}, {"smiles": "CNC(=O)c1cnn(-c2nc(N)c3ncn([C@@H]4O[C@H](CO)[C@@H](O)[C@H]4O)c3n2)c1", "note": "[regadenoson, 2-[4-[(Methylamino)carbonyl]-1H-pyrazol-1-yl]adenosine]", "values": [{"measurement": "water solubility", "setting": "[4]", "value": "poor water solubility"}]}]}
